{
  "source": "patent US6852863B2",
  "about": "“Metabolites of (3-{[4-tert-butyl-benzyl)-(pyridine-3-sulfonyl)-amino]-methyl}-phenoxy)-acetic acid” (Pfizer Inc., priority 2002, dated 2005)",
  "key": {"[1]": {"assay": "Metabolism of 14C-parent in dog liver microsomes", "type": "in vitro ADME", "settings": "20 μM 14C-parent, NADPH, 30 minutes, 37° C.; HPLC radiochromatogram peak", "procedure": "(§1) Human (HL-mix 12), rat, monkey and dog liver microsomes were prepared by differential centrifugation using standard procedures. Prior to use, liver microsomes were thawed on ice and reconstituted using 100 mM potassium phosphate pH 7.4. [^14C]-(3-{[4-tert-butyl-benzyl)-(pyridine-3-sulfonyl)-amino]-methyl}-phenoxy)-acetic acid was dissolved 100 mM potassium phosphate pH 7.4 at a final substrate concentration of 20 μM. Samples were pre-incubated for 3 min with microsomes (CYP 450; 0.5 μM) at 37° C. in a shaking water bath. Incubations were initiated with the addition of 100 μl cofactor (1.1 mM NADPH, 10 mM MgCl2) per 1 ml of incubation mixture. Incubations were stopped after 30 minutes by the addition of an equal volume of cold acetonitrile.\n(§2) Metabolite quantification was performed by measuring the areas of individually separated HPLC peaks using the β-RAM (IN/US, Win-flow). […]\n(§3) Identification of the metabolites was performed using a Finnigan TSQ 7000 triple quadrupole mass spectrometer equipped with an API-2 electrospray interface. […] The β-RAM response was recorded as a real time analog signal by the MS data collection system. The collected data from the radioactivity and MS detectors were separated by the dwell volume of flow from the MS to the radioactivity detector (corresponding to a dwell time of about 0.2 min.). […]"}, "Rat hepatocytes": {"system": "Rat hepatocytes", "assay": "Metabolism of parent in rat hepatocytes", "type": "in vitro ADME, Sprague Dawley rats", "settings": "20 μM parent, 2 million cells per ml, 4 hours, 37° C.", "procedure": "(§4) Human hepatocytes were generated from a mix of 3 livers. Rat and monkey hepatocytes were generated using Sprague Dawley rats (12 livers), Cynomolgus monkey (1 liver) and Beagle dogs (2 livers). Cryopreserved hepatocytes were suspended in William's E media with 10% FBS to a viable count of 2 million cells per ml and gassed with 95/5 O2/CO2 initially and every hour of incubations. After the addition of 20 μM (3-{[4-tert-butyl-benzyl)-(pyridine-3-sulfonyl)-amino]-methyl}-phenoxy)-acetic acid to a 25 ml Erlenmeyer flask, 2.5 ml of hepatocytes suspension was added and incubated for 4 hours at 37° C. in a shaking water bath.\n(§5) Metabolite quantification was performed by measuring the areas of individually separated HPLC peaks using the β-RAM (IN/US, Win-flow). The β-RAM provided integrated peak representation printouts in CPM as well as the percentage of the radiolabeled material. The β-RAM was operated using a solid scintillation cell. […]\nas §3"}, "Dog hepatocytes": {"system": "Dog hepatocytes", "assay": "Metabolism of parent in dog hepatocytes", "type": "in vitro ADME, Beagle dogs", "settings": "20 μM parent, 2 million cells per ml, 4 hours, 37° C.", "procedure": "as §4\nMetabolite quantification was performed by measuring the areas of individually separated HPLC peaks using the β-RAM (IN/US, Win-flow). The β-RAM provided integrated peak representation printouts in CPM as well as the percentage of the radiolabeled material. The β-RAM was operated using a solid scintillation cell.\nIncubations were stopped by the addition of an equal volume of cold acetonitrile, sonicated and centrifuged at 3000 rpm for 10 minutes. The supernatants were removed and evaporated to dryness under nitrogen. Residues were reconstituted in 50:50 (acetonitrile: water) and aliquots (50-90 μl) were injected onto the HPLC system for analysis.\nThe HPLC system consisted of a HP-1100 solvent delivery system, a HP-1100 membrane degasser, a HP-1100 autoinjector (Hewlett Packard) and an IN/US radioactive monitor (β-RAM). Chromatography was performed on a YMC AQ (C-18) column (4.6 mm×150 mm, 3 μm) (Waters, Milford, Mass.). […]\nas §3"}, "[2]": {"assay": "Metabolism of 14C-parent in rat liver microsomes", "type": "in vitro ADME", "settings": "20 μM 14C-parent, NADPH, 30 minutes, 37° C.; HPLC radiochromatogram peak", "procedure": "as §1, §2, §3"}, "[3]": {"assay": "Metabolism of 14C-parent in monkey liver microsomes", "type": "in vitro ADME", "settings": "20 μM 14C-parent, NADPH, 30 minutes, 37° C.; HPLC radiochromatogram peak", "procedure": "as §1, §2, §3"}, "Monkey hepatocytes": {"system": "Monkey hepatocytes", "assay": "Metabolism of parent in monkey hepatocytes", "type": "in vitro ADME, Cynomolgus monkey", "settings": "20 μM parent, 2 million cells per ml, 4 hours, 37° C.; mobile phase pH 5.0", "procedure": "as §4, §5, §3"}, "[4]": {"target": "T1, rat EP2 prostaglandin E2 receptor (Rattus norvegicus, UniProt Q62928)", "T1 construct": "This full length receptor is used to prepare 293S cells expressing the EP2 receptor; expressed in transfected cells; membranes used in the assay", "T1 sequence (Q62928 whole entry)": "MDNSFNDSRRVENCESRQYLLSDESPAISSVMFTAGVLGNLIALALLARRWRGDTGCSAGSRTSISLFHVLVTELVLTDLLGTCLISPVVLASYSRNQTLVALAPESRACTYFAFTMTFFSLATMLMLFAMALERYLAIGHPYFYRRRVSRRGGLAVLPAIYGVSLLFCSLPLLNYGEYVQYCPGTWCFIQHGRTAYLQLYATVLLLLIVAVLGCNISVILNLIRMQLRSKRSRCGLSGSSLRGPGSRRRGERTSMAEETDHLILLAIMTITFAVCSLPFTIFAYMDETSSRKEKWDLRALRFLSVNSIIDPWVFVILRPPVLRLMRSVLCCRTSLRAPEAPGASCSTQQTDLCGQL", "assay": "Rat EP2 receptor binding assay (displacement of 3H-prostaglandin E2)", "settings": "293S cell membranes expressing rat EP2, 3 nM 3H-prostaglandin E2, 1 hour at 25° C.", "excerpt": "Rat EP2 Recptor Binding Assay\nAssay for Binding to Prostaglandin E2 Receptors\nThe full length EP2 receptor is made as disclosed in Nemoto et al., Prostaglandins and other Lipid Mediators, 1997, 54, 713-725. This full length receptor is used to prepare 293S cells expressing the EP2 receptor.\n293S cells expressing the rat EP2 prostaglandin E2 receptor are generated according to methods known to those skilled in the art. Typically, PCR (polymerase chain reaction) primers corresponding to the 5′ and 3′ ends of the published full length receptor are made according to the well known methods disclosed above and are used in an RT-PCR reaction using the total RNA from rat kidney as a source. […]\nMembrane Preparation: All operations are performed at 4° C. […] Pelleted membranes are resuspended to 3-10 mg protein per ml, protein concentration being determined of the method of Bradford [Bradford, M., Anal. Biochem., 72, 248 (1976)]. […]\nBinding Assay: Frozen membranes prepared as above are thawed and diluted to 1 mg protein per ml in Buffer A above. […] To determine the amount of ^3H-prostaglandin bound to the membranes, the dried filters are placed into plastic bags with scintillation fluid and counted in a LKB 1205 Betaplate reader (Wallac, Gaithersburg, Md.). […]"}},
  "data": [
    {"compound": "CC(C)(C)c1ccc(CNS(=O)(=O)c2cccnc2)cc1", "note": "[Metabolite M20, pyridine-3-sulfonic acid 4-tert-butyl-benzylamide]", "values": [
      {"measurement": "Percent of Radioactivity, Dog liver microsomes", "setting": "[1]", "result": 1.96, "unit": "%"}
    ]},
    {"compound": "dihydroxy (3-{[4-tert-butyl-benzyl)-(pyridine-3-sulfonyl)-amino]-methyl}-phenoxy)-acetic acid [Metabolite M2]", "values": [
      {"measurement": "Percent of Radioactivity, Rat hepatocytes", "setting": "Rat hepatocytes", "result": 15.1, "unit": "%"},
      {"measurement": "Percent of Radioactivity, Dog hepatocytes", "setting": "Dog hepatocytes", "result": 6.59, "unit": "%"}
    ]},
    {"compound": "CC(C)(C(=O)O)c1ccc(CNS(=O)(=O)c2cccnc2)cc1", "note": "[Metabolite M11, 2-methyl-2-{4-[(pyridine-3-sulfonylamino)-methyl]-phenyl}-propionic acid]", "values": [
      {"measurement": "Percent of Radioactivity, Rat liver microsomes", "setting": "[2]", "result": 20.7, "unit": "%"},
      {"measurement": "Percent of Radioactivity, Monkey liver microsomes", "setting": "[3]", "result": 7.97, "unit": "%"}
    ]},
    {"compound": "CC(C)(CO)c1ccc(CNS(=O)(=O)c2cccnc2)cc1", "note": "[Metabolite M21, pyridine-3-sulfonic acid 4-(2-hydroxy-1,1-dimethyl-ethyl)-benzylamide]", "values": [
      {"measurement": "Percent of Radioactivity, Rat hepatocytes", "setting": "Rat hepatocytes", "result": 8.91, "unit": "%"},
      {"measurement": "Percent of Radioactivity, Monkey hepatocytes", "setting": "Monkey hepatocytes", "result": 4.53, "unit": "%"},
      {"measurement": "Percent of Radioactivity, Dog hepatocytes", "setting": "Dog hepatocytes", "result": 7.92, "unit": "%"}
    ]},
    {"compound": "CC(C)(C(=O)O)c1ccc(CN(Cc2cccc(OCC(=O)O)c2)S(=O)(=O)c2cccnc2)cc1", "note": "[Metabolite M3, 2-(4-{[(3-carboxymethoxy-benzyl)-(pyridine-3-sulfonyl)-amino]-methyl}-phenyl)-2-methyl-propionic acid]", "values": [
      {"measurement": "IC50", "setting": "[4]", "result": 0.75, "unit": "µM"}
    ]},
    {"compound": "CC(C)(C)c1ccc(CN(Cc2ccc(O)c(OCC(=O)O)c2)S(=O)(=O)c2cccnc2)cc1", "note": "[Metabolite M12, (5-{[(4-tert-butyl-benzyl)-(pyridine-3-sulfonyl)-amino]-methyl}-hydroxy-phenoxy)-acetic acid]", "values": [
      {"measurement": "Percent of Radioactivity, Dog hepatocytes", "setting": "Dog hepatocytes", "result": 15.0, "unit": "%"}
    ]}
  ]
}
